How the values were obtained:
[1] = tested on: streptozotocin (STZ) induced diabetic mice; assay: Hypoglycemic activity in streptozotocin-induced diabetic mice (blood glucose, water intake); format: in vivo, Male ICR (CD-1) mice
Experimental: Induction of Experimental Diabetes in Mice: Male ICR (CD-1) mice (8-9 weeks of age) were fasted for 6 hrs. before streptozotocin (STZ) administration. Fresh STZ solution at 15 mg/mL was prepared by dissolving powder STZ into 1 mM citrate buffer (pH 4.5). Mice received i.p. STZ solution of 150 mg/kg. Fasting blood glucose level was measured from tail vein blood. Mice with blood glucose levels of 250 mg/dL or higher were considered to be diabetic. Blood samples with “HI” (>600 mg/dL) reading were diluted with same amount of normal saline before measuring again.
A total of 20 diabetic mice were randomized based on the blood glucose levels into two study groups, group A: Metformin (Met)-treated, and group B: Thymoquinone/Metformin (TQ/Met)-treated groups.
There were 10 animals in each group. Mice in group A received oral administration of Met at a dose of 200 mg/kg every day. Mice in group B received oral administration of Met+TQ (200 mg/kg+50 mg/kg) every day using a 20-Ga stainless feeding needle. Fasting blood glucose level was measured weekly.
Water intake was also estimated by weighing each water bottle before and after a period of 24 hrs. The volume of water consumed was estimated from the weight of water consumed. The volume of water consumed by each cage was normalized with body weight and presented as mL/30 g BW over 24 hrs.

[2] = tested on: Lipopolysaccaride/D-Galactosamine (LPS/GaIN) induced acute liver failure; assay: LPS/GalN induced acute liver failure, survival; format: in vivo, Male C57BL6 mice; settings: TQ 200 mg/kg oral gavage 30 min after LPS/GalN injection; all control mice died in over 7 hrs
Experimental: A total of 13 male C57BL6 mice (5-6 weeks of age) were injected intraperitoneally with D-galactosamine (GaIN, Carbosynth) (800 mg/kg) and lipopolysaccharide (LPS from E coli 0127:B8, Sigma-Aldrich) (10 μg/kg) dissolved in normal saline. 30 min after LPS/GalN injection, 6 mice in the control group received purified water (20 mL/kg) and 7 mice received a TQ at a dose of 200 mg/kg, via oral gavage. Survival was monitored for 48 hrs. All mice in the control group died in over 7 hrs. period following the injection of LPS/GalN, while 4 out of 7 mice treated with TQ survived up to 48 hrs. (see FIG. 2).

[3] = cited from earlier work
[4] = cited from earlier work; remark: listed apart in the source

Row | SMILES | Blood Glucose Level, Pre-Treat ([1]; fasting blood glucose, STZ diabetic mice, before treatment, Mean ± SD, n = 10) | Blood Glucose Level, 1-Week Treat ([1]; fasting blood glucose, oral daily dosing, 1 week, Mean ± SD, n = 10) | Blood Glucose Level, 2-Week Treat ([1]; fasting blood glucose, oral daily dosing, 2 weeks, Mean ± SD, n = 10) | Blood Glucose Level, 3-Week Treat ([1]; fasting blood glucose, oral daily dosing, 3 weeks, Mean ± SD, n = 10) | decrease in blood glucose level ([1]; over 3-week period, oral daily, Met 200 mg/kg, Met+TQ 200 mg/kg+50 mg/kg) | mice surviving up to 48 hrs [2] | solubility in aqueous buffers [3] | stability in aqueous solutions [4]
1 | CN(C)C(=N)N=C(N)N [Met, Metformin] | 443 ± 102 mg/dL | 433 ± 115 mg/dL | 290 ± 84 mg/dL | 299 ± 96 mg/dL | 32.5% |  |  | 
2 | CC1=CC(=O)C(C(C)C)=CC1=O [TQ, 2-Isopropyl-5-methyl-1,4-benzoquinone] |  |  |  |  |  | 4 out of 7 | approx. 500 μg/mL | highly unstable

— patent US11389413B2, “Methods of preparing compositions containing thymoquinone” (Jina Pharmaceuticals, Inc., priority 2017, dated 2022)
